Our source for the IC50 values is PMC10749220, “Development of a Rapid in vivo Assay to Evaluate the Efficacy of IRE1-specific Inhibitors of the Unfolded Protein Response Using Medaka Fish” (Cell Structure and Function, 2019).

The assay addresses T1, IRE1α (Homo sapiens, UniProt O75460).
T1 construct: gene ERN1; His-tagged cytoplasmic region of IRE1α (IRE1-C), expressed in SF9 insect cells
As to the kind of experiment: in vitro XBP1 mRNA cleavage assay with purified IRE1-C, urea-PAGE, SYBR Gold stain. Format: biochemical.

The structures appear in SMILES notation.

T1 sequence (O75460 465-977 limits assumed): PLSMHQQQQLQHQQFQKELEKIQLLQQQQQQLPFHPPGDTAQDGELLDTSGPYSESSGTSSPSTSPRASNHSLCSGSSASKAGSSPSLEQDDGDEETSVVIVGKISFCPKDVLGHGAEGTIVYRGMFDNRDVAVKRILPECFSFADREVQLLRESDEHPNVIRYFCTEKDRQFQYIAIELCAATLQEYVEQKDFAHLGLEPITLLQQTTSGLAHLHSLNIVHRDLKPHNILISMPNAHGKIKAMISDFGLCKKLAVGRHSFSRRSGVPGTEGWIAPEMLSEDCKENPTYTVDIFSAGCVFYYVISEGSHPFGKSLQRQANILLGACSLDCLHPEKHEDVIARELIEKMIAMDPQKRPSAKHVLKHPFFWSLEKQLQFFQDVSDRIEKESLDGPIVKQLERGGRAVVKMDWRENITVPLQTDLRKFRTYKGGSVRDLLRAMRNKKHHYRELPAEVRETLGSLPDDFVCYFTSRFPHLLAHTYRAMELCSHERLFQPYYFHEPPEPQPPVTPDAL

As usually defined, the IC50 is the concentration at which inhibition is half-maximal. A high value points to a need for much substance. Regarding `Cc1cc(=O)oc2c(C=O)c(O)ccc12` [4μ8C], the IC50 was determined as 0.0741 µM.
With `Oc1ccc(/C=C/c2ccc(/C=C/c3ccc(O)cc3)c(Br)c2)cc1` [K114] the figure was 30.8 µM.
